“And” between values parts separate entries of the source, which are not always exact repeats. Identical values can stand only once. Toxic doses and inconclusive results are not listed. The calls were made as follows: active = survival T/C of 150% or more; inactive = T/C below 125% in these data.
Tested on: P388 leukemia ip, CD2F1 mice, survival T/C
Test: NCI In Vivo Anticancer Drug Screen. Data for tumor model P388 Leukemia (intraperitoneal) in CD2F1 (CDF1) mice
Settings: endpoint: median survival time, higher = longer survival
Method in brief: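 Mice carrying the transplanted tumor received test compound or vehicle. Survival was recorded in each group, and the value is the treated-group measurement divided by that of the vehicle-treated control group.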

[1] = dose: 12.5 mg/kg/injection, schedule: Q01DX009 (ip), vehicle: saline with Tween-80
[2] = dose: 25.0 mg/kg/injection, schedule: Q01DX009 (ip), vehicle: saline with Tween-80
[3] = dose: 50.0 mg/kg/injection, schedule: Q01DX009 (ip), vehicle: saline with Tween-80
[4] = dose: 50.0 mg/kg/injection, schedule: Q01DX005 (ip), vehicle: Klucel (hydroxypropylcellulose) (HPC)
[5] = dose: 100.0 mg/kg/injection, schedule: Q01DX005 (ip), vehicle: Klucel (hydroxypropylcellulose) (HPC)
[6] = dose: 100.0 mg/kg/injection, schedule: Q01DX009 (ip), vehicle: saline with Tween-80
[7] = dose: 200.0 mg/kg/injection, schedule: Q01DX009 (ip), vehicle: saline with Tween-80
[8] = dose: 50.0 mg/kg/injection, schedule: Q01DX009 (ip), vehicle: saline
[9] = dose: 100.0 mg/kg/injection, schedule: Q01DX009 (ip), vehicle: saline
[10] = dose: 60.0 mg/kg/injection, schedule: Q01DX005 (ip), vehicle: saline with Tween-80
[11] = dose: 120.0 mg/kg/injection, schedule: Q01DX005 (ip), vehicle: saline with Tween-80
[12] = dose: 240.0 mg/kg/injection, schedule: Q01DX005 (ip), vehicle: saline with Tween-80

Measured: T/C

Cc1sc(C)c(CCl)c1CCl
inactive: [1] 113 % of control | [2] 118 % of control | dose: 37.5 mg/kg/injection, schedule: Q01DX009 (ip), vehicle: saline with Tween-80 122 % of control | [3] 118 % of control

CCCNc1nc(C)nc2[nH]cc(C)c12
inactive: [4] 100 % of control | [5] 102 % of control

CCOC(=O)Nc1cc2c(c(N)n1)N=C(c1ccccc1)CO2
inactive: dose: 25.0 mg/kg/injection, schedule: Q01DX005 (ip), vehicle: saline with Tween-80 102 % of control and 112 % of control

Cc1c2oc3c(C)ccc(C(=O)NCCCN4CCN(C)CC4)c3nc-2c(C(=O)NCCCN2CCN(C)CC2)c(N)c1=O
inactive: dose: 6.25 mg/kg/injection, schedule: Q04DX003 (ip), vehicle: saline with Tween-80 106 % of control | dose: 12.5 mg/kg/injection, schedule: Q04DX003 (ip), vehicle: saline with Tween-80 104 % of control | dose: 25.0 mg/kg/injection, schedule: Q04DX003 (ip), vehicle: saline with Tween-80 114 % of control and 117 % of control | dose: 100.0 mg/kg/injection, schedule: Q04DX003 (ip), vehicle: saline with Tween-80 123 % of control

O=C(O)CCSCCCCCCCCCCSCCC(=O)O
inactive: [4] 98 % of control | [5] 93 % of control | dose: 200.0 mg/kg/injection, schedule: Q01DX005 (ip), vehicle: Klucel (hydroxypropylcellulose) (HPC) 86 % of control

COc1ccc2c(c1OC)C(C(Cl)(Cl)Cl)N1CCc3cc4c(cc3C1=C2)OCO4 (configuration not stated)
inactive: [3] 93 % of control | [6] 90 % of control | [7] 92 % of control

NCCc1cc(O)c(O)c(O)c1
inactive: [8] 108 % of control and 109 % of control | [9] 117 % of control
active: dose: 400.0 mg/kg/injection, schedule: Q01DX009 (ip), vehicle: saline 153 % of control and 168 % of control

CSCCCNCc1ccc([N+](=O)[O-])cc1
inactive: dose: 50.0 mg/kg/injection, schedule: Q01DX005 (ip), vehicle: saline 97 % of control | dose: 100.0 mg/kg/injection, schedule: Q01DX005 (ip), vehicle: saline 111 % of control

COc1cc(/C=C/c2ccccn2)oc(=O)c1
inactive: dose: 100.0 mg/kg/injection, schedule: Q04DX002 (ip), vehicle: Klucel (hydroxypropylcellulose) (HPC) 102 % of control | dose: 200.0 mg/kg/injection, schedule: Q04DX002 (ip), vehicle: Klucel (hydroxypropylcellulose) (HPC) 100 % of control | dose: 400.0 mg/kg/injection, schedule: Q04DX002 (ip), vehicle: Klucel (hydroxypropylcellulose) (HPC) 100 % of control

COc1ccc2c(c1)CC[C@@H]1[C@@H]2CC[C@]2(C)[C@@H](OCCOS(=O)(=O)c3ccc(C)cc3)CC[C@@H]12
inactive: dose: 100.0 mg/kg/injection, schedule: Q01DX001 (ip), vehicle: saline with Tween-80 99 % of control | dose: 200.0 mg/kg/injection, schedule: Q01DX001 (ip), vehicle: saline with Tween-80 101 % of control | dose: 400.0 mg/kg/injection, schedule: Q01DX001 (ip), vehicle: saline with Tween-80 101 % of control

Cc1ccc(/C=N/NC(=O)CNC(=O)c2ccccc2)cc1
inactive: [10] 97 % of control | [11] 92 % of control | [12] 97 % of control

O=NN(C(=O)NCCN1CCOCC1)C1CCCCC1
inactive: dose: 25.0 mg/kg/injection, schedule: Q01DX001 (ip), vehicle: water 115 % of control | dose: 50.0 mg/kg/injection, schedule: Q01DX001 (ip), vehicle: water 100 % of control | dose: 100.0 mg/kg/injection, schedule: Q01DX001 (ip), vehicle: water 103 % of control | dose: 200.0 mg/kg/injection, schedule: Q01DX001 (ip), vehicle: water 111 % of control | dose: 400.0 mg/kg/injection, schedule: Q01DX001 (ip), vehicle: water 117 % of control

CCOC([O-])=N/C(C)=N/[n+]1ccccc1
inactive: [8] 104 % of control | [9] 104 % of control | dose: 200.0 mg/kg/injection, schedule: Q01DX009 (ip), vehicle: saline 98 % of control

CCOC(=O)CCCCCCNC(=O)N1c2c(nc(N)[nH]c2=O)NCC1CNc1ccc(C(=O)NC(CCC(=O)O)C(=O)O)cc1 (configuration not stated)
inactive: dose: 50.0 mg/kg/injection, schedule: Q01DX001 (ip), vehicle: sodium bicarbonate 106 % of control | dose: 100.0 mg/kg/injection, schedule: Q01DX001 (ip), vehicle: sodium bicarbonate 100 % of control | dose: 200.0 mg/kg/injection, schedule: Q01DX001 (ip), vehicle: sodium bicarbonate 100 % of control

O=C(NCCO)Nc1ccc2c(c1)OCCOCCOCCOCCO2
inactive: dose: 30.0 mg/kg/injection, schedule: Q01DX005 (ip), vehicle: saline 98 % of control | dose: 60.0 mg/kg/injection, schedule: Q01DX005 (ip), vehicle: saline 101 % of control | dose: 120.0 mg/kg/injection, schedule: Q01DX005 (ip), vehicle: saline 99 % of control | dose: 240.0 mg/kg/injection, schedule: Q01DX005 (ip), vehicle: saline 99 % of control

CCOc1cccc2c1NC(C)=C(C(=O)c1ccccc1)S2
inactive: [10] 100 % of control | [11] 95 % of control | [12] 91 % of control

C[C@]12CC[C@H]3[C@@H](CCC4=C[C@@H](OC5OCC(OC6OC(CO)C(O)C(O)C6O)C(O)C5O)CC[C@@]43C=O)[C@@]1(O)CCC2C1=CC(=O)OC1 (some centres not stated)
inactive: dose: 0.16 mg/kg/injection, schedule: Q01DX009 (ip), vehicle: saline 105 % of control | dose: 0.25 mg/kg/injection, schedule: Q01DX009 (ip), vehicle: saline with Tween-80 95 % of control | dose: 0.31 mg/kg/injection, schedule: Q01DX009 (ip), vehicle: saline 108 % of control | dose: 0.5 mg/kg/injection, schedule: Q01DX009 (ip), vehicle: saline with Tween-80 107 % of control and 95 % of control | dose: 0.63 mg/kg/injection, schedule: Q01DX009 (ip), vehicle: saline 103 % of control | dose: 1.0 mg/kg/injection, schedule: Q01DX009 (ip), vehicle: saline with Tween-80 117 % of control and 97 % of control | dose: 1.25 mg/kg/injection, schedule: Q01DX009 (ip), vehicle: saline 103 % of control

Cc1cc(C=C2C(=O)c3ccccc3C2=O)cc(C(C)(C)C)c1O
inactive: dose: 100.0 mg/kg/injection, schedule: Q04DX002 (ip), vehicle: saline 100 % of control | dose: 200.0 mg/kg/injection, schedule: Q04DX002 (ip), vehicle: saline 100 % of control | dose: 400.0 mg/kg/injection, schedule: Q04DX002 (ip), vehicle: saline 97 % of control

CN(C)c1ccc(/C=C/c2ccnc3c(O)ccc(O)c23)cc1
inactive: [1] 91 % of control | [2] 94 % of control | [3] 92 % of control

CC(C)=CCc1cc(O)c(CC=C(C)C)cc1O
inactive: [2] 101 % of control | [3] 106 % of control | [6] 96 % of control | [7] 96 % of control

Cc1ccc(Nc2nnc(CSc3ccc(Cl)cc3)s2)c(S(=O)(=O)O)c1
inactive: [10] 104 % of control | [11] 94 % of control | [12] 104 % of control

[Cl][Pt+2][Cl].[NH-]CC(=O)O.[NH-]CC(=O)O
inactive: dose: 3.13 mg/kg/injection, schedule: Q01DX009 (ip), vehicle: water 100 % of control and 121 % of control | dose: 6.25 mg/kg/injection, schedule: Q01DX009 (ip), vehicle: water 113 % of control | dose: 12.5 mg/kg/injection, schedule: Q01DX009 (ip), vehicle: water 123 % of control and 124 % of control | dose: 25.0 mg/kg/injection, schedule: Q01DX009 (ip), vehicle: water 117 % of control | dose: 50.0 mg/kg/injection, schedule: Q01DX009 (ip), vehicle: water 118 % of control and 121 % of control

COC(=O)c1nc(N)nc(C(=O)OC)c1C(=O)c1ccncc1
inactive: dose: 60.0 mg/kg/injection, schedule: Q01DX005 (ip), vehicle: Klucel (hydroxypropylcellulose) (HPC) 92 % of control | dose: 120.0 mg/kg/injection, schedule: Q01DX005 (ip), vehicle: Klucel (hydroxypropylcellulose) (HPC) 96 % of control

CC1OC(c2ccc3c(c2O)C(=O)C2=C(C3=O)[C@H]3OC(=O)C[C@H]3O[C@@H]2C)CC(N(C)C)C1O (some centres not stated)
inactive: dose: 1.5 mg/kg/injection, schedule: Q01DX005 (ip), vehicle: other 91 % of control | dose: 750.0 micrograms/kg/injection, schedule: Q01DX005 (ip), vehicle: other 86 % of control | dose: 1500.0 micrograms/kg/injection, schedule: Q01DX005 (ip), vehicle: other 90 % of control | dose: 3000.0 micrograms/kg/injection, schedule: Q01DX005 (ip), vehicle: other 88 % of control

C=C1C[C@@H](C2OC3OC(C)(C)OC3C2OCc2ccccc2)OC1=O (some centres not stated)
inactive: dose: 50.0 mg/kg/injection, schedule: Q01DX005 (ip), vehicle: saline with Tween-80 116 % of control | dose: 100.0 mg/kg/injection, schedule: Q01DX005 (ip), vehicle: saline with Tween-80 124 % of control

— PubChem BioAssay AID330 (DTP/NCI, 2004)
